Numbering of substitutions follows the chain as printed. The source made the active and inactive calls. The calls are words filed in the database; no cut-off is given here.
Experiments:
[1] = target: T1, Lysine-specific demethylase 4A (Homo sapiens) (UniProt O75164); assay: (§1) Inhibition of NanoLuc-KDM4A-TUDOR domain (unknown origin) binding to Histone H3.3-HaloTag expressed in 293T cells incubated for 18 hrs by Nano-BRET based target engagement assay; format: cell-based
T1 sequence (whole entry): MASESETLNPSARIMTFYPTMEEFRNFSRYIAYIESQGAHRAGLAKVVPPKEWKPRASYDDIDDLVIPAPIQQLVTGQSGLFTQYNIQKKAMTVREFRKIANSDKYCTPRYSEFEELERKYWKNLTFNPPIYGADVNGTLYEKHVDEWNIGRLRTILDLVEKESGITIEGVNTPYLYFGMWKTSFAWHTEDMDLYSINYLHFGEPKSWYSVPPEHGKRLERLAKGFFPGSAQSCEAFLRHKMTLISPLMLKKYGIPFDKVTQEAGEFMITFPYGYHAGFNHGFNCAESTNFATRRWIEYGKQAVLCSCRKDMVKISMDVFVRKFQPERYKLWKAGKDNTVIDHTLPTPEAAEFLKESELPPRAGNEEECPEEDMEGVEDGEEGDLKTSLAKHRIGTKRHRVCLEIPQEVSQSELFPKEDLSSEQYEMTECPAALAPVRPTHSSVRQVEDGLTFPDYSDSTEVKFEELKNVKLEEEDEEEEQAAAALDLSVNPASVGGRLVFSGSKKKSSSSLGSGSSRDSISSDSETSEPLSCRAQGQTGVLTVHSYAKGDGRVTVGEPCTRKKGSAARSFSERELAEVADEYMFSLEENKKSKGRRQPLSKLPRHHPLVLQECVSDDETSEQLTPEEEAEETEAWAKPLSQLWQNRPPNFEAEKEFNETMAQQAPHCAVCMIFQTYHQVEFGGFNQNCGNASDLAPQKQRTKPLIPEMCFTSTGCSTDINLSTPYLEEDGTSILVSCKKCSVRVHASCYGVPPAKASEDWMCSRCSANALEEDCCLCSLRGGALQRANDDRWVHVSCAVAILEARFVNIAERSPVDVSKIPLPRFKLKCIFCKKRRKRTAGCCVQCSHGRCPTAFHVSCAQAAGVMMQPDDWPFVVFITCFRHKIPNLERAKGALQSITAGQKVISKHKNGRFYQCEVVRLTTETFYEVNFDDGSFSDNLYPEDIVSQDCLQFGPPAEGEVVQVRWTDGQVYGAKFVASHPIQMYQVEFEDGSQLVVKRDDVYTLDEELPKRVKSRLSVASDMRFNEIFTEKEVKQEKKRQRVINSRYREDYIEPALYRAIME

[2] = target: T2, Lysine-specific demethylase 4A (Homo sapiens, UniProt O75164); assay: as §1; format: cell-based
T2 sequence (O75164 whole entry): T1 sequence (whole entry)

[3] = test system: T3, Lysine-specific demethylase 4A (Homo sapiens), O75164 [W967A]; assay: Binding affinity to thrombin cleavable N-terminal 6His tagged and 13C-IVLM labeled human KDM4A tandem TUDOR domain (897 to 1011 residues) W967A mutant expressed in Escherichia coli BL21(DE3)-T1R by ITC method
T3 sequence (whole entry): T1 sequence (whole entry) with W967A

[4] = target: T2, Lysine-specific demethylase 4A; assay: Binding affinity to thrombin cleavable N-terminal 6His tagged and 13C-IVLM labeled human KDM4A tandem TUDOR domain (897 to 1011 residues) expressed in Escherichia coli BL21(DE3)-T1R by ITC method
[5] = target: T2, Lysine-specific demethylase 4A; assay: Inhibition of H3(1-10)K4me3 peptide binding to thrombin cleavable N-terminal 6His tagged and 13C-IVLM labeled human KDM4A tandem TUDOR domain (897 to 1011 residues) expressed in Escherichia coli BL21(DE3)-T1R by ITC method

inhibition [1]: Dose-dependent effect | EC50 [2]: 105 µM | Activity [3]: inactive | Kd [4]: 81.7 µM | Ki [5]: 170 µM
Structure (SMILES): CN(C)C[C@H]1C2CCC(c3ccccc3)(C2)[C@H]1O (stereo not given in full)
